Source: the supplement of paper PMC10307832

Columns and labels:
Test in all cases: relative viability (nuclei count vs DMSO), 5 days (fraction); higher = more cells survive
[1] = tested on: LK-2
In short: (§1)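 The day after seeding in 1536-well plates, lung cancer cell lines were treated by pin tool with a single drug, or with a fixed anchor-drug dose together with five library-drug doses (not always all listed) in √10 steps. After 5 days, a combined fix-and-stain solution (final 0.05% Triton X-100, 1% formaldehyde, 1 ug/ml Hoechst) was added. Nuclei counted on 4× images gave relative viability as treated counts over vehicle counts, reported as the median of duplicate plates.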

[2] = tested on: COR-L23
In short: as §1

[3] = tested on: NCI-H3122
In short: as §1

[4] = tested on: HARA
In short: as §1

[5] = tested on: NCI-H441
In short: as §1

[6] = tested on: CAL-12T
In short: as §1

[7] = tested on: NCI-H2009
In short: as §1

[8] = tested on: NCI-H2170
In short: as §1

[9] = tested on: NCI-H727
In short: as §1

[10] = tested on: HCC-366
In short: as §1

[11] = tested on: NCI-H1650
In short: as §1

[12] = tested on: BEN
In short: as §1

[13] = tested on: COR-L 105
In short: as §1

[14] = tested on: NCI-H661
In short: as §1

[15] = tested on: NCI-H1437
In short: as §1

[16] = tested on: LU99A
In short: as §1

[17] = tested on: NCI-H1666
In short: as §1

[18] = tested on: 201T
In short: as §1

[19] = tested on: PC-14
In short: as §1

[20] = tested on: NCI-H2023
In short: as §1

[21] = tested on: EKVX
In short: as §1

[22] = tested on: ABC-1
In short: as §1

[23] = tested on: NCI-H838
In short: as §1

In the case of `COc1cc(N2CCC(C(N)=O)CC2)ccc1Nc1nc(N)c(Cl)c(Nc2ccccc2S(=O)(=O)C(C)C)n1` [HG-5-88-01] + CS(=O)(=O)N1CCN(Cc2cc3nc(-c4cccc5[nH]ncc45)nc(N4CCOCC4)c3s2)CC1 [Pictilisib] (partner 1 µM), the relative viability ([1]; first compound 0.04 µM) is reported as 0.632, the relative viability ([1]; first compound 0.1265 µM) is reported as 0.522 and the relative viability ([1]; first compound 0.4 µM) is reported as 0.546. It also gave a relative viability ([1]; first compound 1.265 µM) of 0.386, a relative viability ([1]; first compound 4 µM) of 0.614 and a relative viability ([2]; first compound 0.04 µM) of 0.629. It also gave a relative viability ([2]; first compound 0.1265 µM) of 0.725, a relative viability ([2]; first compound 0.4 µM) of 0.608 and a relative viability ([2]; first compound 1.265 µM) of 0.371. The relative viability ([2]; first compound 4 µM) was 0.353, the relative viability ([3]; first compound 0.04 µM) was 0.252 and the relative viability ([3]; first compound 0.1265 µM) was 0.174. The relative viability ([3]; first compound 0.4 µM) was 0.2, the relative viability ([3]; first compound 1.265 µM) was 0.172 and the relative viability ([3]; first compound 4 µM) was 0.173. It also gave a relative viability ([4]; first compound 0.04 µM) of 0.438, a relative viability ([4]; first compound 0.1265 µM) of 0.358 and a relative viability ([4]; first compound 0.4 µM) of 0.414. For the same compound, the relative viability ([4]; first compound 1.265 µM) was 0.411, the relative viability ([4]; first compound 4 µM) was 0.301 and the relative viability ([5]; first compound 0.04 µM) was 0.435. It also gave a relative viability ([5]; first compound 0.1265 µM) of 0.409, a relative viability ([5]; first compound 0.4 µM) of 0.494 and a relative viability ([5]; first compound 1.265 µM) of 0.352. For the same compound, the relative viability ([5]; first compound 4 µM) was 0.536, the relative viability ([6]; first compound 0.04 µM) was 0.321 and the relative viability ([6]; first compound 0.1265 µM) was 0.354. For the same compound, the relative viability ([6]; first compound 0.4 µM) was 0.418, the relative viability ([6]; first compound 1.265 µM) was 0.296 and the relative viability ([6]; first compound 4 µM) was 0.227. For the same compound, the relative viability ([7]; first compound 0.04 µM) was 0.771, the relative viability ([7]; first compound 0.1265 µM) was 0.882 and the relative viability ([7]; first compound 0.4 µM) was 0.693. For the same compound, the relative viability ([7]; first compound 1.265 µM) was 0.793, the relative viability ([7]; first compound 4 µM) was 0.631 and the relative viability ([8]; first compound 0.04 µM) was 0.269. For the same compound, the relative viability ([8]; first compound 0.1265 µM) was 0.33, the relative viability ([8]; first compound 0.4 µM) was 0.28 and the relative viability ([8]; first compound 1.265 µM) was 0.26. It also gave a relative viability ([8]; first compound 4 µM) of 0.261, a relative viability ([9]; first compound 0.04 µM) of 0.486 and a relative viability ([9]; first compound 0.1265 µM) of 0.448. It also gave a relative viability ([9]; first compound 0.4 µM) of 0.24, a relative viability ([9]; first compound 1.265 µM) of 0.261 and a relative viability ([9]; first compound 4 µM) of 0.249. It also gave a relative viability ([10]; first compound 0.04 µM) of 0.101, a relative viability ([10]; first compound 0.1265 µM) of 0.16 and a relative viability ([10]; first compound 0.4 µM) of 0.0782. It also gave a relative viability ([10]; first compound 1.265 µM) of 0.157, a relative viability ([10]; first compound 4 µM) of 0.212 and a relative viability ([11]; first compound 0.04 µM) of 0.583. It also gave a relative viability ([11]; first compound 0.1265 µM) of 0.551, a relative viability ([11]; first compound 0.4 µM) of 0.565 and a relative viability ([11]; first compound 1.265 µM) of 0.519. It also gave a relative viability ([11]; first compound 4 µM) of 0.355, a relative viability ([12]; first compound 0.04 µM) of 0.504 and a relative viability ([12]; first compound 0.1265 µM) of 0.523. For the same compound, the relative viability ([12]; first compound 0.4 µM) was 0.544, the relative viability ([12]; first compound 1.265 µM) was 0.468 and the relative viability ([12]; first compound 4 µM) was 0.447. For the same compound, the relative viability ([13]; first compound 0.04 µM) was 0.348, the relative viability ([13]; first compound 0.1265 µM) was 0.537 and the relative viability ([13]; first compound 0.4 µM) was 0.336. For the same compound, the relative viability ([13]; first compound 1.265 µM) was 0.309, the relative viability ([13]; first compound 4 µM) was 0.342 and the relative viability ([14]; first compound 0.04 µM) was 0.43. The relative viability ([14]; first compound 0.1265 µM) was 0.477, the relative viability ([14]; first compound 0.4 µM) was 0.469 and the relative viability ([14]; first compound 4 µM) was 0.418. For the same compound, the relative viability ([15]; first compound 0.04 µM) was 0.519, the relative viability ([15]; first compound 0.1265 µM) was 0.431 and the relative viability ([15]; first compound 0.4 µM) was 0.436. It also gave a relative viability ([15]; first compound 1.265 µM) of 0.416, a relative viability ([15]; first compound 4 µM) of 0.264 and a relative viability ([16]; first compound 0.04 µM) of 0.31. It also gave a relative viability ([16]; first compound 0.1265 µM) of 0.315, a relative viability ([16]; first compound 0.4 µM) of 0.303 and a relative viability ([16]; first compound 1.265 µM) of 0.318. It also gave a relative viability ([16]; first compound 4 µM) of 0.215, a relative viability ([17]; first compound 0.04 µM) of 0.503 and a relative viability ([17]; first compound 0.1265 µM) of 0.43. For the same compound, the relative viability ([17]; first compound 0.4 µM) was 0.467, the relative viability ([17]; first compound 1.265 µM) was 0.476 and the relative viability ([17]; first compound 4 µM) was 0.34. It also gave a relative viability ([18]; first compound 0.04 µM) of 0.71, a relative viability ([18]; first compound 0.1265 µM) of 0.64 and a relative viability ([18]; first compound 0.4 µM) of 0.649. It also gave a relative viability ([18]; first compound 1.265 µM) of 0.729, a relative viability ([18]; first compound 4 µM) of 0.739 and a relative viability ([19]; first compound 0.04 µM) of 0.79. It also gave a relative viability ([19]; first compound 0.1265 µM) of 0.862, a relative viability ([19]; first compound 0.4 µM) of 0.658 and a relative viability ([19]; first compound 1.265 µM) of 0.168. It also gave a relative viability ([19]; first compound 4 µM) of 0.108, a relative viability ([20]; first compound 0.04 µM) of 0.222 and a relative viability ([20]; first compound 0.1265 µM) of 0.245. For the same compound, the relative viability ([20]; first compound 0.4 µM) was 0.16, the relative viability ([20]; first compound 1.265 µM) was 0.159 and the relative viability ([20]; first compound 4 µM) was 0.171. It also gave a relative viability ([21]; first compound 0.04 µM) of 0.444, a relative viability ([21]; first compound 0.1265 µM) of 0.426 and a relative viability ([21]; first compound 0.4 µM) of 0.372. It also gave a relative viability ([21]; first compound 4 µM) of 0.355, a relative viability ([22]; first compound 0.04 µM) of 0.614 and a relative viability ([22]; first compound 0.1265 µM) of 0.829. It also gave a relative viability ([22]; first compound 0.4 µM) of 0.679, a relative viability ([22]; first compound 1.265 µM) of 0.681 and a relative viability ([22]; first compound 4 µM) of 0.522. It also gave a relative viability ([23]; first compound 0.04 µM) of 0.312, a relative viability ([23]; first compound 0.1265 µM) of 0.503 and a relative viability ([23]; first compound 0.4 µM) of 0.337. For the same compound, the relative viability ([23]; first compound 1.265 µM) was 0.393 and the relative viability ([23]; first compound 4 µM) was 0.383.
